Columns and labels:
Influenza A virus [1] = assay: Antiviral activity against influenza virus A strain H7N7 (FPV) was determined as zone of cytotoxicity; format: functional, unidentified influenza virus
Influenza A virus [2] = assay: Antiviral effect against influenza virus A strain H7N7 (FPV) by the difference between zone of plaque inhibition and zone of cytotoxicity; format: functional, unidentified influenza virus
Newcastle disease virus [3] = assay: Antiviral effect against newcastle disease virus strain Russeff (NDV) by the difference between zone of plaque inhibition and zone of cytotoxicity; (11-12 mm); format: functional, avian paramyxovirus 1
Suid alphaherpesvirus 1 [4] = assay: Antiviral activity against pseudorabies virus strain Anjeszky A2 was determined as zone of plaque inhibition; format: functional; design: unit not given here
Newcastle disease virus [5] = assay: Antiviral activity against newcastle disease virus strain Russeff (NDV) was determined as zone of cytotoxicity; format: functional, avian paramyxovirus 1; design: unit not given here
Suid alphaherpesvirus 1 [6] = assay: Antiviral activity against pseudorabies virus strain Anjeszky A2 was determined as zone of cytotoxicity; format: functional; design: unit not given here
Suid alphaherpesvirus 1 [7] = assay: Antiviral effect against pseudorabies virus strain Anjeszky A2 by the difference between zone of plaque inhibition and zone of cytotoxicity; (6-10 mm); format: functional
Newcastle disease virus [8] = assay: Antiviral activity against newcastle disease virus strain Russeff (NDV) was determined as zone of plaque inhibition; format: functional, avian paramyxovirus 1
Influenza A virus [9] = assay: Antiviral activity against influenza virus A strain H7N7 (FPV) was determined as zone of plaque inhibition; format: functional, unidentified influenza virus
Suid alphaherpesvirus 1 [10] = assay: Antiviral effect against pseudorabies virus strain Anjeszky A2 by the difference between zone of plaque inhibition and zone of cytotoxicity; format: functional
Newcastle disease virus [11] = assay: Antiviral effect against newcastle disease virus strain Russeff (NDV) by the difference between zone of plaque inhibition and zone of cytotoxicity; format: functional, avian paramyxovirus 1
Influenza A virus [12] = assay: Antiviral effect against influenza virus A strain H7N7 (FPV) by the difference between zone of plaque inhibition and zone of cytotoxicity; (6-10 mm); format: functional, unidentified influenza virus
Newcastle disease virus [13] = assay: Antiviral effect against newcastle disease virus strain Russeff (NDV) by the difference between zone of plaque inhibition and zone of cytotoxicity; (6-10 mm); format: functional, avian paramyxovirus 1
Influenza A virus [14] = assay: Antiviral effect against influenza virus A strain H7N7 (FPV) by the difference between zone of plaque inhibition and zone of cytotoxicity; (11-12 mm); format: functional, unidentified influenza virus
Suid alphaherpesvirus 1 [15] = assay: Antiviral effect against pseudorabies virus strain Anjeszky A2 by the difference between zone of plaque inhibition and zone of cytotoxicity; (21-40 mm); format: functional
Newcastle disease virus [16] = assay: Antiviral effect against newcastle disease virus strain Russeff (NDV) by the difference between zone of plaque inhibition and zone of cytotoxicity; (21-40 mm); format: functional, avian paramyxovirus 1

Structure (SMILES) | Activity (Influenza A virus [1]) | Activity (Influenza A virus [2]) | Activity (Newcastle disease virus [3]) | Activity (Suid alphaherpesvirus 1 [4]) | Activity (Newcastle disease virus [5]) | Activity (Suid alphaherpesvirus 1 [6]) | Activity (Suid alphaherpesvirus 1 [7]) | Activity (Newcastle disease virus [8]) | Activity (Influenza A virus [9]) | Activity (Suid alphaherpesvirus 1 [10]) | Activity (Newcastle disease virus [11]) | Activity (Influenza A virus [12]) | Activity (Newcastle disease virus [13]) | Activity (Influenza A virus [14]) | Activity (Suid alphaherpesvirus 1 [15]) | Activity (Newcastle disease virus [16])
CC(C)(C)OC(=O)NCC(=O)OC[C@H]1O[C@@H](n2cnc(C(N)=O)n2)[C@@H]2OC(C)(C)O[C@@H]21 | 10.2 mm | 5 mM | 12 mM | 23.5 | 19 | 15 | 10 mM | 31.5 mm | 0 mm | – | – | – | – | – | – | –
CC(C)(C)OC(=O)N[C@@H](Cc1c[nH]c2ccccc12)C(=O)OCC1OC(n2cnc(C(N)=O)n2)C2OC(C)(C)OC12 (stereo partly drawn) | 10.7 mm | 5 mM | – | 0 | 10.7 | 9 | – | 0 mm | 15.7 mm | 5 mm | 5 mM | – | – | – | – | –
CC(C)(C)OC(=O)N1CCC[C@H]1C(=O)OCC1OC(n2cnc(C(N)=O)n2)C2OC(C)(C)OC12 (stereo partly drawn) | 14 mm | – | – | 0 | 8.7 | 10 | – | 16.5 mm | 22.8 mm | 5 mm | – | 10 mM | 10 mM | – | – | –
CC(C)(C)OC(=O)N[C@@H](Cc1ccccc1)C(=O)OCC1OC(n2cnc(C(N)=O)n2)C2OC(C)(C)OC12 (stereo partly drawn) | 9.2 mm | – | – | 0 | 16.5 | 16.5 | – | 0 mm | 19.3 mm | 5 mm | 5 mM | – | – | 12 mM | – | –
CC(C)C[C@H](NC(=O)OC(C)(C)C)C(=O)OCC1OC(n2cnc(C(N)=O)n2)C2OC(C)(C)OC12 (stereo partly drawn) | 8.3 mm | – | 12 mM | 18 | 16 | 16 | – | 28 mm | 16.8 mm | 5 mm | – | 10 mM | – | – | – | –
NC(=O)c1ncn([C@@H]2O[C@H](CO)[C@@H](O)[C@H]2O)n1 [RIBAVIRIN] | – | – | – | – | – | – | – | – | – | – | – | – | – | 12 mM | 40 mM | 40 mM

Reference: ChEMBL document CHEMBL1128032, “Synthesis and antiviral activity of amino acid esters of ribavirin” (1994)
